{"source": "patent US9364479B2", "about": "“Use of a receptor-type kinase modulator for treating polycystic kidney disease” (SYMPHONY EVOLUTION, INC., priority 2010, dated 2016)", "key": {"Flt-4": {"target": "Flt-4 (Homo sapiens, UniProt P35916)", "sequence (P35916 725-1298 isoform P35916-1)": "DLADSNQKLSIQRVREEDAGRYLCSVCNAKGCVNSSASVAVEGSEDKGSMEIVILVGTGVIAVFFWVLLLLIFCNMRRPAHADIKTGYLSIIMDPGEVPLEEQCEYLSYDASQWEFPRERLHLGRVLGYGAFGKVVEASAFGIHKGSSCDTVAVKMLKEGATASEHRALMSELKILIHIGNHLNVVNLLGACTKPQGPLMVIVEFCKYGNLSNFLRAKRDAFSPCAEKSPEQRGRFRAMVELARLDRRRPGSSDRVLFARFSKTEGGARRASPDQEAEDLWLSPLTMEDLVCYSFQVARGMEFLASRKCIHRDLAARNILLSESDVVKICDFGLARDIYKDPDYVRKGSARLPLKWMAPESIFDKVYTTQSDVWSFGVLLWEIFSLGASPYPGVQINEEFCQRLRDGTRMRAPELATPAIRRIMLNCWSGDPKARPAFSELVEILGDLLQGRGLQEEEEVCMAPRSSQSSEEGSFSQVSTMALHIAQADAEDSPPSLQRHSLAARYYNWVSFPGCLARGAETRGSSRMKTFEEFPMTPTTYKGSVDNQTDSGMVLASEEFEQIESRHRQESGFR", "experiment": "AlphaScreen tyrosine kinase assay", "format": "biochemical", "set-up": "residues D725-R1298 of human Flt-4, Proqinase; purchased Proqinase", "details": "ATP at Km", "description": "Dose-response experiments were done using 10 different inhibitor concentrations in 384-well microtiter plates. The ATP concentration used for each assay was equivalent to the Km for each kinase. IC50 values were calculated by nonlinear regression analysis using the four-variable equation: Y=min+(max−min)/[1+([I]/IC50)N], where Y is the observed signal, [I] is the inhibitor concentration, min is the background signal in the absence of enzyme (0% enzyme activity), max is the signal in the absence of inhibitor (100% enzyme activity), IC50 is the inhibitor concentration required at 50% enzyme inhibition, and N represents the empirical Hill slope as a measure of cooperativity.\nAn AlphaScreen tyrosine kinase assay was used to measure ErbB2 and Flt-4 activity. Donor beads coated with streptavidin and acceptor beads coated with PY100 anti-phosphotyrosine antibody (Perkin-Elmer) were used. Biotinylated poly(Glu,Tyr) 4:1 was used as the substrate. Substrate phosphorylation was measured by luminescence following donor-acceptor bead addition followed by complex formation. […] After 2 to 16 h of incubation at room temperature, plates were read using an AlphaQuest reader (Perkin-Elmer)."}, "[1]": {"target": "T1, Cholecystokinin, CCK2 (CCKB) (Homo sapiens, UniProt P32239)", "T1 construct": "NovaScreen", "T1 sequence (P32239 whole entry)": "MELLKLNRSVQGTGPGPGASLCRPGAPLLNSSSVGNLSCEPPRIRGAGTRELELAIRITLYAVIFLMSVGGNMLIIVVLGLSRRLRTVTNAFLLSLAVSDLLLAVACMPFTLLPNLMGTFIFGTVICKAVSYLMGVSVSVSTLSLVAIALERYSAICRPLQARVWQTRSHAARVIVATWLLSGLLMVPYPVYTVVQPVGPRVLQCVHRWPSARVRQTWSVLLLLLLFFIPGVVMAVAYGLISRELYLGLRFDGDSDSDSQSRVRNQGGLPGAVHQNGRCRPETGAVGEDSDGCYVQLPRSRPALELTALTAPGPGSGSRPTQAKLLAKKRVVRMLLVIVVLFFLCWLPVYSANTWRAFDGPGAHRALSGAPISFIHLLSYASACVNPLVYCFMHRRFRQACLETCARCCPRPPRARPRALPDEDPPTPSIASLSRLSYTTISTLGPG", "experiment": "NovaScreen assay", "format": "binding", "details": "read-out: Inhibition, 10 μM XL-647"}, "Phospho AKT Ser473": {"test_system": "Phospho AKT Ser473", "experiment": "Immunohistochemical analysis of phosphorylation in H1975 xenografts", "format": "in vivo, mouse", "details": "14-day dosing", "description": "For immunohistochemical analysis of H1975, MDA-MB-231 and other xenografts, tumors were excised after euthanasia and fixed in zinc fixative (BD Biosciences) for 48 h before being processed into paraffin blocks. Serial sections at 5 μm were obtained from the area of largest possible surface for each tumor and stained using standard methods. The following antibodies were used: Ki67 (SP6; Labvision), CD31 (MECA.32; BD Biosciences), pERK^Thr202/Tyr204 (phospho-p44/42 mitogen-activated protein kinase; Cell Signaling Technology), pAKT^Ser473 (Cell Signaling Technology), and pEGFR^Tyr1068 (Cell Signaling Technology). For immunofluorescent staining, sections were then incubated with Alexa 594-conjugated goat anti-rabbit secondary antibody (Invitrogen) and mounted in Fluorescent Mounting Medium (DAKO) containing 4′,6-diamidino-2-phenylindole (Molecular Probes) as a nuclear counterstain. Fluorescent staining was visualized using a Zeiss Axiolmager and digitally captured using a Zeiss high-resolution camera coupled to AxioVision image analysis software. Two to three nonoverlapping representative fields were captured at ×200 or ×400 magnification depending on histologic readout and quantified using the integrated morphometric analysis functions in Metamorph software (Universal Imaging Corp.). Apoptotic cells were detected using terminal deoxynucleotidyl transferase-mediated dUTP nick end labeling in situ cell death detection kit according to the manufacturer's instructions (Roche Diagnostics GmbH).\nResults are presented as mean±SD or SE as indicated for each graph or table. For IC50 comparison in the A431 cell viability experiment, two sample Student's t tests were applied to determine P values for each IC50 pair assuming that the random fluctuations of replicates around the dose-response curve are distributed [log]normally with the individual replicates used as the ‘sample size’ for the t test (nine point dose response done in triplicate). For statistical analysis of immunohistochemical results from in vivo studies, two-tailed Student's t test analysis and Bonferroni correction were done to identify significant differences compared with vehicle control group (multiple use of a single vehicle control group) with a cumulative minimal requirement of P<0.05."}, "[2]": {"details": "human"}, "EphA2": {"target": "T2, EphA2 (Homo sapiens, UniProt P29317)", "T2 construct": "Human, N598-; mM MgCl2, 3 mM MnCl2,; R890, N-His6; His6 (N)", "T2 sequence (P29317 598-890)": "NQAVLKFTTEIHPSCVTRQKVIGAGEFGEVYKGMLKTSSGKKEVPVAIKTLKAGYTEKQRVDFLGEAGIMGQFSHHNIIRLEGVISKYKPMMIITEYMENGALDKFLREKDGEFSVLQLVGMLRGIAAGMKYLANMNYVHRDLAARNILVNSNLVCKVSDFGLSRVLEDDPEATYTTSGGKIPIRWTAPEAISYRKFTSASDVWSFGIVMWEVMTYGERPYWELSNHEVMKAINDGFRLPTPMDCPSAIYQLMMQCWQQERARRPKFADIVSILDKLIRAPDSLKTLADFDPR", "experiment": "Chemiluminescent kinase assay", "format": "biochemical"}, "Histamine, H1": {"target": "T3, Histamine, H1 (Homo sapiens, UniProt P35367)", "T3 construct": "NovaScreen", "T3 sequence (P35367 whole entry)": "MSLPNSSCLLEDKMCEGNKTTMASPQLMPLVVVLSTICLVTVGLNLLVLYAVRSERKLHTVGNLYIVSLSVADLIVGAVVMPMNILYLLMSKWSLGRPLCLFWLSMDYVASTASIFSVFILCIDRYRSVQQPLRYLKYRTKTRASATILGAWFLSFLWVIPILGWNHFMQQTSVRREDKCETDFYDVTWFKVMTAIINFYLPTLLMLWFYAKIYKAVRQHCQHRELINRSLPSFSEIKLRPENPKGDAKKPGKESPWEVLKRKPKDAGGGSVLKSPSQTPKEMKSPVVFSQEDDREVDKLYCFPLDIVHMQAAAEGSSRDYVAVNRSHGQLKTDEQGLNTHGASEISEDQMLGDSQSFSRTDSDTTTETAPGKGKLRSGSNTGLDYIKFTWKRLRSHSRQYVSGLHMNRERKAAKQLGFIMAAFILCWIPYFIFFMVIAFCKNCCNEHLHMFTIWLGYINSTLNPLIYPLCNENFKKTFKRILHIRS", "experiment": "NovaScreen assay", "format": "binding", "details": "read-out: Inhibition, 10 μM XL-647"}, "c-Kit": {"target": "c-Kit (Homo sapiens, UniProt P10721)", "sequence (P10721 544-976)": "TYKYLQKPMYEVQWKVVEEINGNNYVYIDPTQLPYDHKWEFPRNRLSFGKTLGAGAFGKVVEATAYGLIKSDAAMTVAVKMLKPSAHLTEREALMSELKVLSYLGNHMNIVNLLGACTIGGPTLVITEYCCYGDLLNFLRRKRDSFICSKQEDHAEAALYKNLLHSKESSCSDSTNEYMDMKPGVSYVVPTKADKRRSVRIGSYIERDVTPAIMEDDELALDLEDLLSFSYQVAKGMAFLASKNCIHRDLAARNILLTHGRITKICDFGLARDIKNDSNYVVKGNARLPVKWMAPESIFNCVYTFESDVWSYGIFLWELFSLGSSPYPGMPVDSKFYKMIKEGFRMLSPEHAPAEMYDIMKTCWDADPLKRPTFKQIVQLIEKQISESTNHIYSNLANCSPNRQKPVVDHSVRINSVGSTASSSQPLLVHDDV", "experiment": "AlphaScreen kinase assay", "format": "biochemical", "set-up": "Human, T544-; MgCl2, 3 mM MnCl2, 1 mM; V976, N-GST,; GST (N); purchased ProQinase", "description": "An AlphaScreen tyrosine kinase assay was used to measure ErbB2 and Flt-4 activity. Donor beads coated with streptavidin and acceptor beads coated with PY100 anti-phosphotyrosine antibody (Perkin-Elmer) were used. Biotinylated poly(Glu,Tyr) 4:1 was used as the substrate. Substrate phosphorylation was measured by luminescence following donor-acceptor bead addition followed by complex formation. Test compound, 3 μmol/L ATP, 3 nmol/L biotinylated poly(Glu,Tyr) 4:1, and 1 nmol/L ErbB2 (residues Q679-V1255 of human ErbB2, Proqinase) or Flt-4 (residues D725-R1298 of human Flt-4, Proqinase) were combined in a volume of 20 μL Assay Buffer (20 mM TrisHCl, pH 7.5, 10 mM MgCl2, 3 mM MnCl2, 1 mM DTT, 0.01% Triton) in a 384-well white, medium-binding microtiter plate (Greiner). Reaction mixtures were incubated for 1 h at room temperature. Reactions were quenched by addition of 10 μL of 15 to 30 μg/mL AlphaScreen bead suspension containing 75 mmol/L HEPES (pH 7.4), 300 mmol/L NaCl, 120 mmol/L EDTA, 0.3% bovine serum albumin, and 0.03% Tween 20. After 2 to 16 h of incubation at room temperature, plates were read using an AlphaQuest reader (Perkin-Elmer).\n(§1) Further screening was performed using the biochemical assay methods of Example 2. Additional description of the components and concentrations are summarized in Table 8, Table 9, and Table 10, below."}, "Neurokinin, NK3 (NKB)": {"target": "T4, Neurokinin, NK3 (NKB) (Homo sapiens, UniProt P29371)", "T4 construct": "NovaScreen", "T4 sequence (P29371 whole entry)": "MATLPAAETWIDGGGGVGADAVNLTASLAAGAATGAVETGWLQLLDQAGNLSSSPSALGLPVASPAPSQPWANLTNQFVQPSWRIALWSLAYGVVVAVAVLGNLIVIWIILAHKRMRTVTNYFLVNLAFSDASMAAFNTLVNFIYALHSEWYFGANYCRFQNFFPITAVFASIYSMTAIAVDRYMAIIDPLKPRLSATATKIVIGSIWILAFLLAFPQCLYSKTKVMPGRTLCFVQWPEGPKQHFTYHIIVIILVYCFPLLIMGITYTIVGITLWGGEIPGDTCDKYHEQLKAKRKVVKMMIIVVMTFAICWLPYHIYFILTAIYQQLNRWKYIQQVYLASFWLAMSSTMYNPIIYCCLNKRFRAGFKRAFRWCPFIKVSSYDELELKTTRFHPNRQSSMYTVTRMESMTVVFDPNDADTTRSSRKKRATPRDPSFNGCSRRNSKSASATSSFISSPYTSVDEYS", "experiment": "NovaScreen assay", "format": "binding", "details": "read-out: Inhibition, 10 μM XL-647"}, "PKA": {"target": "T5, PKA (Bos taurus, UniProt P00517)", "T5 construct": "Bovine (Heart),; purchased Upstate Biotechnology; host or cells: bovine heart", "experiment": "Chemiluminescent kinase assay", "format": "biochemical, bovine", "description": "as §1"}, "[3]": {"target": "T6, Potassium Channel, Ca2+ Act., VS (Homo sapiens, UniProt Q12791)", "T6 construct": "NovaScreen", "T6 sequence (Q12791 whole entry)": "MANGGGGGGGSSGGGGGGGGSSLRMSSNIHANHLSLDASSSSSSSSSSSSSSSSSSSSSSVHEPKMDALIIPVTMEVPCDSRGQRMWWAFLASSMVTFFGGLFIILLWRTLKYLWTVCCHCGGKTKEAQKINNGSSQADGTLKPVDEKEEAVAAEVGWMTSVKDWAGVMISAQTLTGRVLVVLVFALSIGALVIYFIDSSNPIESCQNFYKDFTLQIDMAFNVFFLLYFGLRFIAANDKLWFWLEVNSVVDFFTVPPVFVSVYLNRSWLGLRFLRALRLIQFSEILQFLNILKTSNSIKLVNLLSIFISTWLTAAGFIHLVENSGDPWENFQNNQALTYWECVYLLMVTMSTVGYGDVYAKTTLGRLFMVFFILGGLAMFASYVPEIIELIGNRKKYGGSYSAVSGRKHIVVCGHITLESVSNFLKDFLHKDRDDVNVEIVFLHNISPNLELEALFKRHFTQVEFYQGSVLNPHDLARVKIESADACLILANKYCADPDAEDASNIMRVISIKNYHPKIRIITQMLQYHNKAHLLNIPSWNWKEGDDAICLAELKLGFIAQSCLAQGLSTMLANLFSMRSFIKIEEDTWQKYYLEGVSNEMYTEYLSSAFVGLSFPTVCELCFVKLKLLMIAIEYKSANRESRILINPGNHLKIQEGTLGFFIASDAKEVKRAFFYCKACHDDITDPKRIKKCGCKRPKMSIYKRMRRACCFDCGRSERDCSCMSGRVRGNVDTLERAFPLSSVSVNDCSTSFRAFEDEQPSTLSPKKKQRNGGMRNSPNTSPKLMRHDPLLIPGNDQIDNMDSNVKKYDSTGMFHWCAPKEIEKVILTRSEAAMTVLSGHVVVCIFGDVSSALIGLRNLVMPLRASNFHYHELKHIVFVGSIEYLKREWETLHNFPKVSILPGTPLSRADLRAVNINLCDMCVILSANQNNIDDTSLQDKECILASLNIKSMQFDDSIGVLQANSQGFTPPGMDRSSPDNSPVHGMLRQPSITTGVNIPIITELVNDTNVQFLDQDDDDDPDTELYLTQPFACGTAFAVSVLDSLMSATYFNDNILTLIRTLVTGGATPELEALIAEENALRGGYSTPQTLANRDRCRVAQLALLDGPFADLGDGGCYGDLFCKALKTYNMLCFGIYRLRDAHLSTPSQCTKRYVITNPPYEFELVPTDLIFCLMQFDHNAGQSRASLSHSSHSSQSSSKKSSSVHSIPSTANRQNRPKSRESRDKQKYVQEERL", "experiment": "NovaScreen assay", "format": "binding", "details": "read-out: Inhibition, 10 μM XL-647"}, "Neurokinin, NK1": {"target": "T7, Neurokinin, NK1 (Homo sapiens, UniProt P25103)", "T7 construct": "NovaScreen", "T7 sequence (P25103 whole entry)": "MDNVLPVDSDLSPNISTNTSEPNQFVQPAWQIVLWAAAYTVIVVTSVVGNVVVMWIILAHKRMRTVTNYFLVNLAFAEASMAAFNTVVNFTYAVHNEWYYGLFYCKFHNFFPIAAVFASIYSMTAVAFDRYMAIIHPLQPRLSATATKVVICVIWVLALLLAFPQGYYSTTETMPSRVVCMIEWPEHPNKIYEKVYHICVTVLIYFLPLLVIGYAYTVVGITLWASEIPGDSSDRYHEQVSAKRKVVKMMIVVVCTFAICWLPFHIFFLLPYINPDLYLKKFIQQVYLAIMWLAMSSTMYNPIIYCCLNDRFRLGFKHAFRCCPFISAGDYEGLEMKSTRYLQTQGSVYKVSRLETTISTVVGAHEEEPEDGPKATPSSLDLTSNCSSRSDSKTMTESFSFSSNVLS", "experiment": "NovaScreen assay", "format": "binding", "details": "read-out: Inhibition, 10 μM XL-647"}}, "note": "Marks after values point to notes of the source that are not given here."}
{"smiles": "COc1cc2c(Nc3ccc(Cl)c(Cl)c3F)ncnc2cc1OC[C@@H]1C[C@@H]2CN(C)C[C@@H]2C1", "note": "[XL-647, N-(3,4-dichloro-2-fluorophenyl)-7-({[(3aR,5r,6aS)-2-methyloctahydrocyclopenta[c]pyrrol-5-yl]methyl}oxy)-6-(methyloxy)quinazolin-4-amine]", "values": [{"measurement": "IC50", "setting": "Flt-4", "result": "8.7 ± 0.6", "unit": "nM"}, {"measurement": "inhibition at 10 µM", "setting": "[1]", "result": 17.1, "unit": "%"}, {"measurement": "Phospho AKT Ser473 % Cells", "setting": "Phospho AKT Ser473; 10 mg/kg", "result": "19 ± 2.1", "unit": "%"}, {"measurement": "Phospho AKT Ser473 % Reduction", "setting": "Phospho AKT Ser473; 10 mg/kg", "result": "53.6^a %"}, {"measurement": "Phospho AKT Ser473 % Cells", "setting": "Phospho AKT Ser473; 30 mg/kg", "result": "12 ± 1.9", "unit": "%"}, {"measurement": "Phospho AKT Ser473 % Reduction", "setting": "Phospho AKT Ser473; 30 mg/kg", "result": "72.4^a %"}, {"measurement": "Phospho AKT Ser473 % Cells", "setting": "Phospho AKT Ser473; 100 mg/kg", "result": "11 ± 1.9", "unit": "%"}, {"measurement": "Phospho AKT Ser473 % Reduction", "setting": "Phospho AKT Ser473; 100 mg/kg", "result": "74.4^a %"}, {"measurement": "protein bound", "setting": "[2]", "result": "93-99%"}, {"measurement": "IC50", "setting": "EphA2", "result": "6.8 ± 0.8", "unit": "nM"}, {"measurement": "inhibition at 10 µM", "setting": "Histamine, H1", "result": 59.8, "unit": "%"}, {"measurement": "IC50", "setting": "c-Kit", "result": "132 ± 8.2", "unit": "nM"}, {"measurement": "inhibition at 10 µM", "setting": "Neurokinin, NK3 (NKB)", "result": 20, "unit": "%"}, {"measurement": "IC50", "setting": "PKA", "result": "> 10", "unit": "µM"}, {"measurement": "inhibition at 10 µM", "setting": "[3]", "result": 22.7, "unit": "%"}, {"measurement": "inhibition at 10 µM", "setting": "Neurokinin, NK1", "result": 20.4, "unit": "%"}]}
